Measured values published in patent US9776972B2, “Pyrazole derivatives as arginine methyltransferase inhibitors and uses thereof” (priority 2013, dated 2017).
Like-named read-outs stand apart in the source and are kept apart here.

Experiments:
[1] = system: mono-methyl arginine in RKO cells; test: RKO Methylation Assay, In Cell Western (ICW) for mono-methyl arginine and DNA content; assay type: cell-based; conditions: Homo sapiens, RKO, 72 h
In short: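 After fixation, mono-methyl arginine and DNA (DRAQ5) were measured by infrared In-Cell Western imaging at 700/800 nm in RKO cells exposed to compounds for 72 hours. Percent activation used DMSO wells as minimum and 20 μM reference compound as maximum; EC30 curves fitted on triplicate wells.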

[2] = target: T1, human PRMT1 (Homo sapiens, UniProt Q99873); test: PRMT1 Biochemical Assay (3H-SAM Flashplate, peptide substrate); conditions: single experiment or average of multiple experiments
T1 construct: GST-tagged PRMT1; made in house; host or cells: High Five insect cells (baculovirus)
In short: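 GST-tagged PRMT1 from baculovirus-infected cells, preincubated with compounds 30 min at room temperature in 20 mM Bicine pH 7.6, 1 mM TCEP, 0.005% BSG, 0.002% Tween 20. Reaction started with ³H-SAM plus biotinylated peptide, stopped with 300 µM cold SAM.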

[3] = RKO cells, 72 hours, mono-methyl arginine, percent activation, single experiment or average of multiple experiments, read-out: EC30 (In Cell Western data, Numerical)

T1 sequence (Q99873 with tags, fused parts or gaps): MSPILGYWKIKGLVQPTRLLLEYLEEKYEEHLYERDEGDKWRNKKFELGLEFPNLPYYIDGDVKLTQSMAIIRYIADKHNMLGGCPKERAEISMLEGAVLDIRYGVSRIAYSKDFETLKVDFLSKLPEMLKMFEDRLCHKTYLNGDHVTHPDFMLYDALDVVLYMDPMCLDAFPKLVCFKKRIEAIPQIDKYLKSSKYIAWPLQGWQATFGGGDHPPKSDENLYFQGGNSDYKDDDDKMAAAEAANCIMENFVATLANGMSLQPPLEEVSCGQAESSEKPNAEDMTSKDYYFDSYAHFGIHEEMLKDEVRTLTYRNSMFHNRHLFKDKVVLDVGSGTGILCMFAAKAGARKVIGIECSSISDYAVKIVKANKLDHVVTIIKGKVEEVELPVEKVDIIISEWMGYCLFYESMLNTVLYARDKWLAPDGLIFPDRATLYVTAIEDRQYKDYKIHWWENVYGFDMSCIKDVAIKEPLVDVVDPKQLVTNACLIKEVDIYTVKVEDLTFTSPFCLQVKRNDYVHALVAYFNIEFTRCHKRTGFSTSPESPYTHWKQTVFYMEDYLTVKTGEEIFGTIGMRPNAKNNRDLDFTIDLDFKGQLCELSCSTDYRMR

IC50 [2] [nM]	Compound	EC30 [1, 3] [µM]	EC30 ([1]; read-out: EC30 (In Cell Western data, Numerical, μM)) [µM]
6.47	CNCCN(C)Cc1c[nH]nc1-c1ccc(Oc2ccccc2)c(C#N)c1 [Compound 221]	0.413	–
1260	CN(CCN)Cc1c(-c2ccc(C#N)cc2)ncn1C [Compound 222]	> 20	–
3.19	CN(CCN)Cc1c[nH]nc1-c1ccc(Oc2ccc(F)cc2)cc1 [Compound 225, N^1-((3-(4-(4-fluorophenoxy)phenyl)-1H-pyrazol-4-yl)methyl)-N^1-methylethane-1,2-diamine]	0.688	–
26.8	CN(CCN)Cc1c[nH]nc1-c1ccc(Oc2ccccc2)c(C(=O)N(C)C)c1 [Compound 226]	> 20	–
24.3	CNC(=O)c1cc(-c2n[nH]cc2CN(C)CCN)ccc1Oc1ccccc1 [Compound 227]	15	–
5.55	CNCCN(C)Cc1c[nH]nc1-c1ccc(OCCCOC)c(Cl)c1 [Compound 228]	0.279	–

Compound	IC50 [2] [nM]	EC30 [1, 3] [µM]	EC30 ([1]; read-out: EC30 (In Cell Western data, Numerical, μM)) [µM]
CN(CCN)Cc1c[nH]nc1-c1ccc(Oc2ccccc2)c(F)c1 [Compound 224, N^1-((3-(3-fluoro-4-phenoxyphenyl)-1H-pyrazol-4-yl)methyl)-N^1-methylethane-1,2-diamine]	2.51	–	0.27
